Measurements taken from patent US11865098B1, “Methods and compositions for treating excessive sleepiness” (Axsome Malta Ltd., priority 2017, dated 2024).

Columns and labels:
Assay type in all cases: in vivo, human
[1] = test system: patients with narcolepsy type 1 or type 2; test: PGI-C, 12-week phase 3 study in narcolepsy
Method: The study was a 12-week, double-blind, randomized, placebo-controlled, parallel-group study. Patients were randomized (1:1:1:1) to receive placebo or APC 75, 150, or 300 mg; randomization was stratified by the presence or absence of cataplexy.
Co-primary endpoints were change from baseline to week 12 in MWT mean sleep latency and ESS score. The key secondary endpoint was the percentage of patients who reported improvement on the Patient Global Impression of Change (PGI-C) (Guy, ECDEU assessment manual for psychopharmacology, revised. US Department of Health, Education, and Welfare publication (ADM 76-338). Rockville, MD: National Institute of Mental Health; 1976) at week 12. Other secondary and exploratory endpoints included changes on function and quality-of-life and changes in the number of cataplexy attacks per week. Safety evaluation included adverse events, laboratory tests, and vital signs.
Efficacy analyses were based on the modified intent-to-treat population (mITT), defined as all patients who were randomized, received at least 1 dose of study drug, and had baseline and at least 1 post-baseline evaluation of both MWT and ESS. MWT and ESS were analyzed using a mixed-effect repeated measures (MMRM) model. PGI-C was analyzed using a chi-square test. […]

[2] = test system: adult patients with OSA and ES; test: WPAI:SHP work productivity and activity impairment, 12-week parallel study in OSA; details: 150 and 300 mg; week 12
Method: The study was a 12-week, double-blind, placebo-controlled, parallel design study as described in greater detail in Example 1 (Schweitzer et al., Sleep 40(Abstract Supplement):A237. Abstract 0641 (2017)). Patients were randomized (1:1:2:2:2) to APC 37.5, 75, 150, 300 mg, or placebo for 12 weeks, and were stratified by adherence or non-adherence with primary OSA therapy (adherent definition was use for ≥4 hours per night on >70% of nights). Two patient-reported measures were included as secondary efficacy outcomes to evaluate the effects of APC on functional status and work productivity and activity impairment at baseline and weeks 1, 4, 8, and 12. The Functional Outcomes of Sleep questionnaire short version (FOSQ-10) (Chasens et al., Sleep 32(7):915 (2009)) evaluated the effects of ES on functioning. The Work Productivity and Activity Impairment questionnaire for Specific Health Problems (WPAI:SHP) (Reilly et al., Pharmacoeconomics 4(5):353 (1993); Reilly, Work Productivity and Activity Impairment Questionnaire: Specific Health Problem V2.0 (WPAI: SHP). www.reillyassociates.net/WPAI_SHP) evaluated work productivity impairment among employed patients and overall activity impairment outside of work among all patients for the past 7 days. […]

[3] = test system: adults with OSA and excessive sleepiness; test: Maintenance of Wakefulness Test (MWT), phase 3 randomized withdrawal study in OSA; details: for MWT mean sleep latency after 4 weeks of APC treatment: randomized patients, mITT, 75, 150 or 300 mg once daily
Method: The MWT is an objective test used to measure how alert a subject is during the day. The test consists of four sleep trials with two hours in between the trials. The first trial is performed 1.5-3 hours after the subject's normal wake-up time. Sensors are placed on the head, face, and chin to detect when the subject is asleep and awake during the test. The subject sits quietly in bed with his or her back and head supported by a pillow and is asked to sit still and look straight ahead while trying to stay awake as long as possible. Each trial lasts 40 minutes or until the subject is asleep for 90 seconds. Between trials, the subject stays out of bed and occupies himself or herself to remain awake. Falling asleep in an average of less than eight minutes is considered abnormal. About 40-60% of subjects with normal sleep stay awake for the entire 40 minutes of all four trials.
The study was a double-blind, placebo-controlled, enriched, randomized withdrawal design (FIG. 1). In the Titration Phase (weeks 1-2), patients started on a once-daily dose of APC 75 mg and could be titrated up or down every 3 days to reach a maximum tolerated dose of APC 75, 150, or 300 mg. In the Stable-Dose Phase (weeks 3-4), patients continued to receive the dose that they were titrated to in the Titration Phase for 2 weeks. […]
Efficacy was based on change from week 4 to 6 on the co-primary endpoints of MWT and ESS and percentage of patients reported as improved on the PGI-C and Clinician Global Impression of Change (CGI-C); assessed on a 7-point scale from 1 (very much improved) to 7 (very much worse).
MWT and ESS data were analyzed using a mixed-effect model repeated measures (MMRM); PGI-C and CGI-C were evaluated using a chi-square test. […] Safety and tolerability were evaluated based on treatment-emergent adverse events (TEAEs), vital signs, and laboratory values.

Compound: NC(=O)OC[C@H](N)Cc1ccccc1 [JZP-110, (R)-2-amino-3-phenylpropyl carbamate]
- Percentage of patients who reported improvement in overall condition (PGI-C) relative to placebo ([1]; all doses (nominal P-value at 75 mg), week 12, mITT): significantly increased the percentage of patients who reported improvement
- PGI-C improvement, effect at week 1 ([1]; all doses, as early as week 1): Statistically significant effects
- WPAI:SHP presenteeism, overall work impairment and activity impairment compared to placebo [2]: significantly decreased lower presenteeism, overall work impairment, and activity impairment
- Change in mean MWT sleep latency from week 4 to week 6 ([3]; Double-Blind Withdrawal Phase, patients who remained on JZP-110, P<0.0001 vs switched to placebo): -1.0 min
- MWT mean sleep latency after 4 weeks of APC treatment ([3]; group increased from 12.3 at baseline): 29.0 min
- MWT mean sleep latency after 4 weeks of APC treatment ([3]; group increased from 13.1 at baseline): 31.7 min
